We go through two molecules from patent publication US20240325544A1, “CATIONIC LIPID FOR COVALENT MODIFICATION OF PEPTIDES” (PharmalN Corporation, priority 2023, published 2024).

Marks after values point to notes of the source that are not given here. Bridge positions count the residues as written; N and C are the ends. Square brackets hold non-standard residues; d marks the D form. Peptide text beside a SMILES is read from it. * marks the point of attachment. Palmitoyl = CCCCCCCCCCCCCCCC(=O)*; Dab = NCC[C@H](N)C(=O)O; Dap = NC[C@H](N)C(=O)O; AEEA = NCCOCCOCC(=O)O Where only a bound is given, the exact number is not on record here.

The test system of series [1] is cGMP. Kind of series: Plasma cGMP profile after single SC injection in CD-1 mice (FIG. 1B). The series is classed as in vivo. The note with it: 1.0 mg/kg SC, 0-24 hours. As to the method:
(§1) The animals were kept in PharmaIN animal facility with controlled temperature (68-74° F.) and humidity (30-60%), and a 12-hour light/dark cycle. […] Lead buffer was used to formulate or dissolve all test articles on the day of administration. Blood sampling: Blood samples were collected via retro-orbital bleed at several timepoints (0, 0.5, 1, 2, 4, 6, 8, and 24 hours) and processed in K2EDTA tubes (2000× g; 15 min, 4° C. within 30 minutes after collection) to obtain plasma. Plasma samples were aliquoted and stored at −80° C. until analysis. Biochemical analysis: For pharmacokinetic study, plasma aliquots were thawed at 4° C. then analyzed using a commercially available CNP ELISA kit from Phoenix Pharmaceuticals (cat #EKE-012-03), which detects the cyclic structure of CNP and all CNP derivatives with the same level of reactivity to the ELISA kit. […] For pharmacodynamic or bioactivity study of cGMP, plasma aliquots were thawed at 4° C. then analyzed using a commercially available cGMP kit from Abcam (ab133052, Waltham, MA).

Another series relates to C57BL/6J mice. Put plainly: Survival in LPS induced sepsis model (FIG. 2A). The series is classed as in vivo. The conditions noted are these: LPS 15 mg/kg IP; 0.3 mg/kg (0.1 μmol/kg) SC once, survival to 56 hours. How it is done:
FIGS. 2A-2B: Single and repeat administration of cationic alkyl modified C-type Natriuretic Peptides increases probability of survival in LPS induced Sepsis and ALI animal models. FIG. 2A) Sepsis induction: Male C57BL/6J mice (n=10 per group; 3 groups) were injected IP with LPS (15 mg/kg) and treated with various test articles, including cationic alkyl modified CNPs (SEQ ID NO: 31 and 29; 0.3 mg/kg (0.1 μmol/kg) SC). The control group received LPS treatment without any test article. The test articles were administered immediately after LPS administration (marked with vertical dotted lines). Survival was monitored every 2 hours from 8-56 hours, after which the surviving mice were euthanized under isoflurane anesthesia. […] Survival was monitored every 8 hours for 72 hours, after which the surviving mice were euthanized under isoflurane anesthesia. […]
Animal care and treatment: Male C57BL/6J mice (6 weeks-old) were purchased from Kyudo (Saga, Japan) and maintained under a 12-hour light/12-hour dark cycle with free access to water and standard mouse diet (MF diet, Oriental Yeast Co., Ltd. Tokyo, Japan). […] Survival was monitored every 2 hours from 8-56 hours, after which the mice were euthanized under isoflurane anesthesia. […] Survival was monitored every 8 hours for 72 hours, after which the mice were euthanized under isoflurane anesthesia. […]

The test system of another series is Sprague Dawley rats. Kind of series: Dose-range finding of cationic alkyl modified CNP, subcutaneous bolus in rats (Table 2).
For series [2] the following is noted: mouse, in vivo, sc, 1 mg/kg. How it is done: FIGS. 1A-1B: PK/PD Profiles for single subcutaneous (SC) injection of native CNP (SEQ ID NO: 32), SEQ ID NO: 31, and SEQ ID NO: 29 at 1.0 mg/kg (0.45, 0.33, and 0.33 μmol/kg, respectively) in mice. Error bars represent standard error of the mean. FIG. 1A) Plasma CNP [mean (SEM); n=5] in CD-1 mice after subcutaneous administration of 1.0 mg/kg of native CNP (SEQ ID NO: 32), SEQ ID NO: 31, and SEQ ID NO: 29 (0.45, 0.33, and 0.33 μmol/kg, respectively) in buffer. […] Plasma CNP in CD-1 mice was measured by CNP ELISA kit from Phoenix Pharmaceuticals (EKE-012-03, Burlingame, CA).
as §1, with “Blood sampling: Blood samples were collected via retro-orbital bleed at several timepoints (0, 0.5, 1, 2, 4, 6, 8, and 24 hours) and processed in K2EDTA tubes (2000× g; 15 min, 4° C. within 30 minutes after collection) to obtain plasma. Plasma samples were aliquoted and stored at −80° C. until analysis.” left out

In series [3] the test system is cGMP. Put plainly: Plasma cGMP after SC bolus of natriuretic peptides in CD-1 mice (pharmacodynamics, Table 3). The note with it: SC bolus 1.0 mg/kg (≤0.45 μmol/kg), baseline 10 +/−8 pmol/ml, n = 3-5. Format: in vivo. The method, boiled down: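 Peptides given SC in sterile water; retro-orbital blood at 2 and 6 h post-dose (two bleeds per mouse), K2EDTA plasma. Plasma cGMP by commercial immunoassay kit; ANP, BNP or CNP plasma levels by peptide-specific ELISA.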

For `CCCCCCCCCCCCCCCC(=O)NCCOCCOCC(=O)NCCOCCOCC(=O)NCCOCCOCC(=O)N[C@@H](CCN)C(=O)N[C@@H](CCN)C(=O)NCC(=O)N[C@@H](CC(C)C)C(=O)N[C@@H](CO)C(=O)N[C@@H](CCCCN)C(=O)NCC(=O)N[C@H]1CSSC[C@@H](C(=O)O)NC(=O)CNC(=O)[C@H](CC(C)C)NC(=O)CNC(=O)[C@H](CO)NC(=O)[C@H](CCC(N)=O)NC(=O)[C@H](CO)NC(=O)CNC(=O)[C@H]([C@@H](C)CC)NC(=O)[C@H](CCCNC(=N)N)NC(=O)[C@H](CC(=O)O)NC(=O)[C@H](CC(C)C)NC(=O)[C@H](CCCCN)NC(=O)[C@H](CC(C)C)NC(=O)CNC(=O)[C@H](Cc2ccccc2)NC1=O` [SEQ ID NO: 29] ({Palmitoyl-AEEA-AEEA-AEEA}-[Dab][Dab]GLSKGCFGLKLDRIGSQSGLGC-OH; disulfide 8-24; C-terminus assumed), the “Plasma cGMP levels over time compared to native CNP” value in the series with cGMP [1] was “sustained elevation of cGMP levels”. For the same molecule, the Survival result in the series on C57BL/6J mice is “effective in improving survival”. Also, in the series on Sprague Dawley rats (up to 10 mg/kg), the “Ataxia** in n = 3” value is above 10 mg/kg and the “Lethargy* in n = 3” value is recorded as at least 9.5 mg/kg. For the same molecule, in the series with Sprague Dawley rats (value in parentheses), the “Ataxia** in n = 3” value was “(3.3) μmol/kg” and the “Lethargy* in n = 3” value is “(3.1) μmol/kg”. Moreover, the “Increase of baseline plasma CNP levels” value in series [2] is above 10 fold. Further, in the series on cGMP [3], the “Plasma concentration of cGMP, 2 hr” value is 157.31* pmol/mL and the “Plasma concentration of cGMP, 6 hr” value is reported as 65.65* pmol/mL.
As for `CCCCCCCCCCCCCCCC(=O)NCCOCCOCC(=O)NCCOCCOCC(=O)NCCOCCOCC(=O)N[C@@H](CN)C(=O)N[C@@H](CN)C(=O)NCC(=O)N[C@@H](CC(C)C)C(=O)N[C@@H](CO)C(=O)N[C@@H](CCCCN)C(=O)NCC(=O)N[C@H]1CSSC[C@@H](C(=O)O)NC(=O)CNC(=O)[C@H](CC(C)C)NC(=O)CNC(=O)[C@H](CO)NC(=O)[C@H](CCC(N)=O)NC(=O)[C@H](CO)NC(=O)CNC(=O)[C@H]([C@@H](C)CC)NC(=O)[C@H](CCCNC(=N)N)NC(=O)[C@H](CC(=O)O)NC(=O)[C@H](CC(C)C)NC(=O)[C@H](CCCCN)NC(=O)[C@H](CC(C)C)NC(=O)CNC(=O)[C@H](Cc2ccccc2)NC1=O` [SEQ ID NO: 31] ({Palmitoyl-AEEA-AEEA-AEEA}-[Dap][Dap]GLSKGCFGLKLDRIGSQSGLGC-OH; disulfide 8-24; C-terminus assumed), the “Plasma cGMP levels over time compared to native CNP” value in the series on cGMP [1] is “sustained elevation of cGMP levels”. Further, in the series on C57BL/6J mice, the Survival result is on record as “effective in improving survival”. In the series with Sprague Dawley rats (up to 10 mg/kg), the “Ataxia** in n = 3” value is above 10 mg/kg and the “Lethargy* in n = 3” value is recorded as above 10 mg/kg. For the same molecule, in the series with Sprague Dawley rats (value in parentheses), the “Ataxia** in n = 3” value is recorded as “(3.3) μmol/kg” and the “Lethargy* in n = 3” value is given as “(3.3) μmol/kg”. The “Increase of baseline plasma CNP levels” value in series [2] was “over 5 fold”. Further, in the series on cGMP [3], the “Plasma concentration of cGMP, 2 hr” value is on record as 98.34**** pmol/mL and the “Plasma concentration of cGMP, 6 hr” value is recorded as 53.62*** pmol/mL.
